# PubChem BioAssay (NCI)
# Values joined by “and” are separate entries in the source; they are usually repeats but may differ in a detail not shown here. Identical values can stand only once.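 Results reflect a 48-hour exposure of cells in 96-well plates to compound at five concentrations. GI50 = concentration required for 50% inhibition of growth. At the TGI there is no net growth.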
# Columns and labels:
# Experiment in all cases: DTP human tumour cell line panel, 48 h
# [1] = test system: T-47D breast
# [2] = test system: IGROV1 ovarian
# [3] = test system: OVCAR-4 ovarian
# [4] = test system: RXF 393 renal
# [5] = test system: DU-145 prostate
# [6] = test system: NCI-H23 lung
# [7] = test system: UACC-62 melanoma
# [8] = test system: ACHN renal
# [9] = test system: SF-539 CNS
# [10] = test system: SK-MEL-28 melanoma
Compound,GI50 [1],TGI [1],GI50 [2],TGI [2],GI50 [3],TGI [3],GI50 [4],TGI [4],GI50 [5],TGI [5],GI50 [6],TGI [6],GI50 [7],TGI [7],GI50 [8],TGI [8],GI50 [9],TGI [9],GI50 [10],TGI [10]
COc1ccc(OCC(O)CN2CCN(c3ccc(Cl)cc3)CC2)cc1 (configuration not stated),> 100 µM,> 100 µM,18.1 µM,> 100 µM,> 100 µM,> 100 µM,79.1 µM,> 100 µM,> 100 µM,> 100 µM,> 100 µM,> 100 µM,> 100 µM,> 100 µM,65.9 µM,> 100 µM,> 100 µM,> 100 µM,> 100 µM,> 100 µM
COc1ccc(/C=C/C(C)=N/OCC(=O)Nc2ccc(Cl)cc2)cc1,1.63 µM,24.8 µM,3.42 µM,51.6 µM,1.97 µM,9.96 µM,4.09 µM,21.4 µM,4.11 µM,78.6 µM,2.54 µM,10.2 µM,1.21 µM,6.46 µM,1.94 µM,> 38.9 µM,3.16 µM,13.4 µM,3.17 µM,31.6 µM
CNCc1ccc(-c2[nH]c3cc(F)cc4c3c2CCNC4=O)cc1,16.8 µM,55 µM,20.8 µM,> 72.2 µM,13.5 µM,47.8 µM,12.3 µM,26.2 µM,16 µM,32.3 µM,20.8 µM,> 56.7 µM,15 µM,29.8 µM,18.7 µM,> 58.2 µM,15 µM,30.6 µM,15.6 µM,32 µM
Cc1ccc(S(=O)(=O)N2CCC(C(=O)O)(c3ccccc3)CC2)cc1,,> 100 µM,,> 100 µM,,> 100 µM,,> 100 µM,,> 100 µM,,> 100 µM,,> 100 µM,,> 100 µM,,> 100 µM,,> 100 µM
COc1ccc(/C(C)=C(\c2ccc(Cl)cc2)c2ccc(OCCN3CCCCCC3)cc2)cc1F,3.47 µM,15.1 µM,3.07 µM,9.34 µM,2.63 µM,8.09 µM,2.55 µM,5.17 µM,4.47 µM,15.6 µM,3.07 µM,10.4 µM,3.52 µM,8.02 µM,5.19 µM,> 16.7 µM,2.18 µM,4.39 µM,2.54 µM,4.9 µM
COc1c(O)c2c3c(c1OC)-c1ccccc1CC3N(S(=O)(=O)c1ccc(C)cc1)CC2 (configuration not stated),1.56 µM,27.9 µM,2.13 µM,> 50 µM,3.7 µM,> 50 µM,1.34 µM,4.12 µM,1.62 µM,6.41 µM,1.17 µM,2.71 µM,2.41 µM,> 50 µM,2.91 µM,> 50 µM,1.15 µM,3.16 µM,2.51 µM,> 50 µM
N#CCC1(n2cc(-c3ncnc4[nH]ccc34)cn2)CN(C2CCN(C(=O)c3ccnc(C(F)(F)F)c3F)CC2)C1,51.7 µM,> 100 µM,> 100 µM,> 100 µM,> 100 µM,> 100 µM,28.2 µM,> 100 µM,> 100 µM,> 100 µM,> 100 µM,> 100 µM,76.4 µM,> 100 µM,> 100 µM,> 100 µM,37.9 µM,> 100 µM,> 100 µM,> 100 µM
O=NN(CCCl)C(=O)NC1CCCCC1,,166 µM,19.7 µM and 73.2 µM,57.4 µM and 150 µM and 162 µM,20 µM,90.8 µM and 155 µM and 87.1 µM,18.1 µM and 76.4 µM,32.9 µM and 102 µM and 143 µM,,132 µM,116 µM,152 µM and 235 µM,7.68 µM,24.2 µM and 72 µM and 77.3 µM,23.2 µM and 82.7 µM,57.6 µM and 153 µM and 182 µM,16.4 µM and 33 µM,34 µM and 84.4 µM and 124 µM,24.1 µM and 66.1 µM,46.5 µM and 144 µM and 99.2 µM
CCN1CCN(c2nc(NNC(=O)c3ccccc3)nc(N3CCN(C(c4ccccc4)c4ccccc4)CC3)n2)CC1,3.16 µM,31.2 µM,3.09 µM,12.8 µM,5.39 µM,26.1 µM,2.56 µM,7.57 µM,8.11 µM,26.5 µM,3.17 µM,11.1 µM,1.96 µM,4.29 µM,2.53 µM,6.56 µM,1.84 µM,3.45 µM,1.8 µM,3.49 µM
C=CCN=C(N/N=C/c1ccc([N+](=O)[O-])o1)NS(=O)(=O)c1cc(C(=O)Nc2ccccc2)c(Cl)cc1SCC(N)=O,23.1 µM,> 100 µM,32.2 µM,97.3 µM,53 µM,> 100 µM,24.8 µM,> 100 µM,22.4 µM,71.9 µM,20.9 µM,49.6 µM,17.3 µM,33.3 µM,> 100 µM,> 100 µM,18.8 µM,41.5 µM,37.6 µM,> 100 µM
Cc1nc2c(Br)cc(Br)cc2c(=O)n1-c1ccccc1NC1OCC(O)C(O)C1O (configuration not stated),,> 100 µM,,> 100 µM,,> 100 µM,33.2 µM and 12.5 µM,> 100 µM and 49.2 µM,44.9 µM and 19.2 µM,> 100 µM and 46.3 µM,,> 100 µM,31.7 µM and 15.7 µM,> 100 µM and 36.7 µM,,> 100 µM and 51.8 µM,48.4 µM and 7.53 µM,> 100 µM and 22.3 µM,,> 100 µM
NC(=O)c1ncn(C2OC(CO)C(O)C2O)c1N (configuration not stated),> 100 µM,> 100 µM,> 100 µM,> 100 µM,> 100 µM,> 100 µM,> 100 µM,> 100 µM,72.2 µM,> 100 µM,> 100 µM,> 100 µM,> 100 µM,> 100 µM,> 100 µM,> 100 µM,> 100 µM,> 100 µM,> 100 µM,> 100 µM
CNCc1cccc2c1OCCOCCOCCC(C)S(=O)(=O)c1ccc(cc1)-c1cnc(N)c(n1)C(=O)N2 (configuration not stated),3.62 µM,18.7 µM,0.659 µM,4.78 µM,1.32 µM,4.32 µM,0.175 µM,1.6 µM,1.25 µM,3.41 µM,3.71 µM,18.9 µM,1.67 µM,3.3 µM,1.3 µM,2.82 µM,1.28 µM,2.56 µM,1.77 µM,3.37 µM
